This note sets out measurements from US8404869B2, “Phenanthrenequinone-based compound and pharmaceutical composition containing the same for the treatment or prevention of disease involving metabolic syndrome” (Mazence Inc., priority 2007, dated 2013).

The test system of assay [1] is AMPK. Nature of the assay: Determination of AMPK activation in differentiated C2C12 myoblast cells (SAMS peptide, [γ-32P]ATP). The format is cell-based. The note with it: C2C12 myoblast cells treated at 5 μg/ml; DMSO (0.5%) control = 1. How it is done:
Myoblast cells, C2C12, were cultured in DMEM containing 10% bovine calf serum. When a cell density reached a range of about 85% to 90%, the culture medium was replaced with a medium containing 1% bovine calf serum to induce differentiation of cells. The thus-differentiated myoblast cells were treated with samples synthesized in Examples 1 through 16 at a concentration of 5 μg/ml, and compared with a control group. Enzymatic activity of AMPK was determined as follows. Firstly, C2C12 cells were lysed to obtain protein extracts and then ammonium sulfate was added to a final concentration of 30%, thereby precipitating proteins. Protein precipitates were dissolved in a buffer (62.5 mM Hepes, pH 7.2, 62.5 mM NaCl, 62.5 mM NaF, 1.25 mM Na pyrophosphate, 1.25 mM EDTA, 1 mM DTT, 0.1 mM PMSF, and 200 μM AMP). Thereafter, 200 μM SAMS peptide (HMRSAMSGLHLVKRR: the underlined serine residue is a phosphorylation site, as an AMPK phosphorylation site of acetyl-CoA carboxylase) and [γ-32P]ATP were added thereto and reactants were reacted for 10 minutes at 30° C. This was followed by spotting of the resulting reaction solution on p81 phosphocellulose paper. The p81 paper was washed with a 3% phosphoric acid solution and radioactivity thereof was measured. For each reaction condition, reactions involving no SAMS peptide were also conducted and basic values were subtracted from the thus-observed values.

Assay [2] concerns C57BL/6JL Lep ob/Lep ob mice. The assay is described as follows: Weight loss effects in obese mice (ob/ob). The class given is in vivo. Particulars: mixed-feed of 0.4% for 18 days; for change in vivo at 0.4 % in feed: Mus musculus, po, 432 h, read-out: Increase in BW; for Final BW: ob/ob male mice. The method, then:
(§1) 10-week-old C57BL/6JL Lep ob/Lep ob male mice having obesity characteristics and predisposition were purchased from Daehan Biolink Co., Ltd. (Chungchongbuk-do, Korea). Animals were raised in a breeding room maintained at a temperature of 23° C., 55% humidity, illumination of 300 to 500 lux, a 12-h light/dark (L/D) cycle, and ventilation of 10 to 18 times/hr. Animals were fed ad libitum pellets of Purina Rodent Laboratory Chow 5001 (purchased from Purina Mills Inc., St. Louis, Mo., USA) as a solid feed for experimental animals and tap water as drinking water. Mice were allowed to acclimate to new environment of the breeding room for two weeks and were then administered some pyrano-3,4-phenanthrenequinone or furano-3,4-naphthoquinone derivatives synthesized according to the present invention at mixed-feed of 0.4% for 18 days. Observation was made on changes in body weight, blood glucose and dietary intake, with respect to a time course of administration. After administration was complete, confirm changes in glucose, lipid and enzyme levels in blood.
(§2) For comparison, the same experiments were carried out for the subject (negative control group) to which the active ingredient was not administered, and subject (positive control group) to which Cryptotanshinone, extracted from Danshen by a method as set forth in Example 1 of the Korean Patent Application No. 2004-0116339 by the present applicant, was administered by the above-mentioned condition.
Herein, ‘Increase in BW’ is calculated as the following; Increase in BW=(Final BW−Initial BW)/Initial BW×100

In assay [3] the test system is C57BL/6JL Lep ob/Lep ob mice. The assay is described as follows: Blood biomarkers (lipid, glucose, enzyme levels) in ob/ob mice. The class given is in vivo. Also on record: unit not given here. Particulars: after mixed-feed of 0.4% for 18 days. How it is done:
as §1, §2

Where [4] appears, read: (Final BW−Initial BW)/Initial BW×100.

Molecules are shown by their SMILES.

`CC1OC2=C(C(=O)C(=O)c3c2ccc2c3CCCC2(C)C)C1(C)C` (stereo not shown) [Example 4, 1,1,2,6,6-Pentamethyl-1,2,6,7,8,9-hexahydro-phenanthro[1,2-b]furan-10,11-dione] returned an AMPK fold in assay [1] of 2.2 fold. Further, the change in vivo at 0.4 % in feed in assay [2] (setting [4]) is -7.1%. Besides, in assay [2], the “Final BW” value amounted to 48.6 ± 3.3 g. In assay [3], this molecule showed a GOT of 476.7, a GPT of 285.0, an HDL chol of 45.0 and an LDL chol of 10.00. In assay [3], this molecule displayed a T. chol of 127.5, a glucose of 128 and a triglyceride of 76.7.
Molecule `CC1CC2=C(O1)c1ccc3c(c1C(=O)C2=O)CCCC3(C)C` (single isomer, unassigned) [Example 3, 2,6,6-Trimethyl-1,2,6,7,8,9-hexahydro-phenanthro[1,2-b]furan-10,11-dione] displayed an AMPK fold in assay [1] of 2.2 fold. Besides, the “Increase in BW” value in assay [2] (setting [4]) is on record as −11.9%. For the same molecule, the “Final BW” value in assay [2] is on record as 46.1 ± 2.1 g. Further, in assay [3] (listed as Ex. 3), the GOT came out at 247.5, the GPT turned out to be 160.0, the HDL chol came out at 42.5 and the LDL chol was determined as 12.00. In assay [3] (listed as Ex. 3), the T. chol was determined as 134.0, the glucose was found to be 132 and the triglyceride is 61.7.
Regarding `COc1ccc2ccc3c(c2c1)C(=O)C(=O)C1=C3OC(C)C1` (stereo not shown) [Example 15, 8-Methoxy-2-methyl-1,2-dihydro-phenanthro[1,2-b]furan-10,11-dione], in assay [1], the AMPK fold is given as 2.2 fold. Further, the change in vivo at 0.4 % in feed in assay [2] (setting [4]) was -6.7%. For the same molecule, the “Final BW” value in assay [2] is recorded as 48.5 ± 1.5 g. In assay [3], this molecule displayed a GOT of 312.5, a GPT of 206.7, an HDL chol of 46.0 and an LDL chol of 8.75. Further, in assay [3], the T. chol is on record as 142.0, the glucose is reported as 155 and the triglyceride is reported as 79.0.
Regarding `CC1OC2=C(C(=O)C(=O)c3c2ccc2ccc(C(C)(C)C)cc32)C1(C)C` (stereo not shown) [Example 12, 8-tert-Butyl-1,1,2-trimethyl-1,2-dihydro-phenanthro[1,2-b]furan-10,11-dione], the AMPK fold in assay [1] amounted to 2.2 fold. Besides, the change in vivo at 0.4 % in feed in assay [2] (setting [4]) was -6.9%. Further, the “Final BW” value in assay [2] was 48.3 ± 2.3 g. Further, in assay [3], the GOT came out at 355.0, the GPT is 77.0, the HDL chol is recorded as 48.0 and the LDL chol amounted to 11.00. In assay [3], this molecule showed a T. chol of 135.0, a glucose of 153 and a triglyceride of 69.0.
`CC1CC2=C(O1)c1ccc3ccc(Cl)cc3c1C(=O)C2=O` (stereo not shown) [Example 13, 8-Chloro-2-methyl-1,2-dihydro-phenanthro[1,2-b]furan-10,11-dione] displayed an AMPK fold in assay [1] of 2.3 fold. The change in vivo at 0.4 % in feed in assay [2] (setting [4]) is -6.3%. Moreover, in assay [2], the “Final BW” value was found to be 48.8 ± 2.5 g. Also, in assay [3], the GOT is reported as 373.5, the GPT was 184.0, the HDL chol worked out at 44.0 and the LDL chol was 12.00. In assay [3], this molecule registered a T. chol of 125.5, a glucose of 138 and a triglyceride of 85.3.
With `CC1CC2=C(O1)c1ccc3c(c1C(=O)C2=O)CCCC3` (stereo not shown) [Example 1, 2-Methyl-1,2,6,7,8,9-hexahydro-phenanthro[1,2-b]furan-10,11-dione], in assay [1], the AMPK fold was determined as 2.2 fold. Further, the change in vivo at 0.4 % in feed in assay [2] (setting [4]) was -14.2%. Further, the “Final BW” value in assay [2] is recorded as 45.3 ± 1.7 g. Besides, in assay [3], the GOT is on record as 233.3, the GPT is on record as 118.8, the HDL chol amounted to 42.5 and the LDL chol was 13.00. Also, in assay [3], the T. chol was found to be 141.7, the glucose worked out at 120 and the triglyceride is listed as 81.7.
In the case of `CC1CC2=C(O1)c1ccc3ccc(C(C)(C)C)cc3c1C(=O)C2=O` (stereo not shown) [Example 11, 8-tert-Butyl-2-methyl-1,2-dihydro-phenanthro[1,2-b]furan-10,11-dione], the AMPK fold in assay [1] turned out to be 2.3 fold. The change in vivo at 0.4 % in feed in assay [2] (setting [4]) is -1.2%. For the same molecule, in assay [2], the “Final BW” value was 52.2 ± 1.4 g. Moreover, in assay [3], the GOT is recorded as 347.5, the GPT was determined as 197.5, the HDL chol was determined as 47.5 and the LDL chol is listed as 9.95. In assay [3], this molecule returned a T. chol of 134.0, a glucose of 175 and a triglyceride of 82.0.
`CC1(C)CCC2=C(O1)c1ccc3c(c1C(=O)C2=O)CCCC3` [Example 6, 3,3-Dimethyl-2,3,7,8,9,10-hexahydro-1H-4-oxa-chrysene-11,12-dione]: the AMPK fold in assay [1] was 2.2 fold. In addition, the change in vivo at 0.4 % in feed in assay [2] (setting [4]) is -6.3%. The “Final BW” value in assay [2] was found to be 49.0 ± 2.7 g. In assay [3], this molecule registered a GOT of 392.5, a GPT of 250.0, an HDL chol of 49.0 and an LDL chol of 13.00. In assay [3], this molecule had a T. chol of 129.5, a glucose of 145 and a triglyceride of 69.5.
`CC1CC2=C(O1)c1ccc3ccccc3c1C(=O)C2=O` (stereo not shown) [Example 7, 2-Methyl-1,2-dihydro-phenanthro[1,2-b]furan-10,11-dione] had an AMPK fold in assay [1] of 2.2 fold. Also, the change in vivo at 0.4 % in feed in assay [2] (setting [4]) is -3.9%. In addition, the “Final BW” value in assay [2] is given as 49.6 ± 2.6 g. In assay [3], this molecule came in with a GOT of 286.7, a GPT of 143.8, an HDL chol of 58.8 and an LDL chol of 14.00. Also, in assay [3], the T. chol is reported as 148.8, the glucose worked out at 156 and the triglyceride amounted to 70.0.
For `C[C@H]1COC2=C1C(=O)C(=O)c1c2ccc2c1CCCC2(C)C` [Positive control group, Cryptotanshinone, reference compound], in assay [2] (setting [4]), the change in vivo at 0.4 % in feed was -1.2%. The “Final BW” value in assay [2] stood at 51.6 ± 1.7 g. In assay [3], this molecule had a GOT of 255.0, a GPT of 149.0, an HDL chol of 48.0 and an LDL chol of 11.0. In assay [3], this molecule had a T. chol of 135.0 and a triglyceride of 100.9.
Molecule `Cc1ccc2ccc3c(c2c1)C(=O)C(=O)C1=C3OC(C)C1` (stereo not shown) [Example 14, 2,8-Dimethyl-1,2-dihydro-phenanthro[1,2-b]furan-10,11-dione] registered an AMPK fold in assay [1] of 2.5 fold. Besides, the change in vivo at 0.4 % in feed in assay [2] (setting [4]) is -7%. In assay [2], the “Final BW” value amounted to 48.7 ± 1.9 g. In assay [3], this molecule showed a GOT of 283.3, a GPT of 66.7, an HDL chol of 45.0 and an LDL chol of 5.00. In assay [3], this molecule came in with a T. chol of 115.0, a glucose of 146 and a triglyceride of 88.3.
In turn, `CC1C2=C(OC1(C)C)c1ccc3c(c1C(=O)C2=O)CCCC3(C)C` (stereo not shown) [Example 5, 1,2,2,6,6-Pentamethyl-1,2,6,7,8,9-hexahydro-phenanthro[1,2-b]furan-10,11-dione] gave an AMPK fold in assay [1] of 2.3 fold. Besides, in assay [2] (setting [4]), the change in vivo at 0.4 % in feed is -7.8%. In addition, the “Final BW” value in assay [2] came out at 47.9 ± 3.1 g. In assay [3], this molecule showed a GOT of 377.5, a GPT of 251.0, an HDL chol of 45.5 and an LDL chol of 14.05. For the same molecule, in assay [3], the T. chol is 126.5, the glucose is reported as 141 and the triglyceride is recorded as 77.0.
